Test results: patent US20100240654A1, “HYDRAZIDE DERIVATIVES” (priority 2004, published 2010)
pIC50: −log10 of the molar value. Where a name gives a salt, the structure may show the parent alone.

Experiments:
healthy human plasma = test: Blood clotting time prolongation (prothrombin time, steel ball method); details: human thromboplastin, 37° C.
[1] = target: T1, human clotting factor VIIa (Homo sapiens, UniProt P08709); test: Inhibitory activity against clotting factor VIIa (chromogenic substrate Spectrozyme FVIIa, with tissue factor); format: biochemical; details: 10 nmol/L TF, 5 nmol/L Factor VIIa, room temperature 40 minutes, 405 nm
T1 construct: a human clotting factor VIIa (Factor VIIa) purified sample; purchased Enzyme Research Laboratories (Factor VIIa); Calbiochem (tissue factor) HFVIIa (Factor VIIa); 612151 (tissue factor)
Protocol: Dimethylsulfoxide (DMSO) solutions were prepared with compounds of the invention at concentration of 10 mmol/L (10 mmol/L compound solutions).
One packet of tris-hydroxymethylaminomethane-preset (Tris Preset) (product of SIGMA Corp., Catalog No. T8293), 8.8 g of sodium chloride (NaCl) and 1 g of bovine serum albumin (BSA) were dissolved in 1 L of water to prepare a Tris-BSA buffer (100 mmol/L Tris, 0.15 mol/L NaCl, 0.1% BSA, pH 7.4).
The Tris-BSA buffer (180 μL) was added to the aforementioned 10 mmol/L compound solution (20 μL). A 10-fold dilution series was prepared for this mixture using the aforementioned Tris-BSA buffer, and solutions with the compound at concentrations of 1.0 mmol/L, 100, 10, 1, 0.1, 0.01 and 0.001 μmol/L were prepared (1.0 mmol-0.001 μmol/L compound solutions).
As a control, a solution was prepared by 10-fold dilution of DMSO with the Tris-BSA buffer (control 10% solution).
After dissolving one packet of Tris preset, NaCl (8.8 g) and BSA (1 g) in water (about 900 mL), there were added 1 mol/L aqueous calcium chloride (CaCl2) (15 mL) and 1 mg/mL aqueous cephalin (30 mL), and the total volume was brought to 1 L by adding water. To this solution was added a human tissue factor (TF) sample (product of Calbiochem, Catalog No. 612151) (450 μg) to a TF sample concentration of 10 nmol/L, and then a human clotting factor VIIa (Factor VIIa) purified sample (product of Enzyme Research Laboratories, Catalog No. HFVIIa) (250 μg) was added to a Factor VIIa purified sample concentration of 5 nmol/L, to prepare an enzyme solution (100 mmol/L Tris-HCl, 0.15 mol/L NaCl, 15 mmol/L CaCl2, 30 μg/mL cephalin, 1 mg/mL BSA, 10 nmol/L TF, 5 nmol/L Factor VIIa).
To 110 μL of this enzyme solution was added 15 μL of each of the 1.0 mmol-0.001 μmol/L compound solutions, and then 25 μL of a 1.0 mmol/L synthetic chromogenic substrate solution (Spectrozyme FVIIa) was added and the mixture was allowed to stand at room temperature for 40 minutes. Next, the amount of 4-nitroanilide released into the solution was quantitated by spectrophotometry (405 nm).
A control measurement was conducted in the same manner, using the control 10% solution instead of the compound solution.
This measurement yielded the enzyme reaction inhibition in the presence of 100 μmol/L to 0.1 nmol/L of each compound of the invention. The enzyme reaction inhibition at each compound concentration was subjected to non-linear regression analysis, and the IC50 value for inhibitory activity of each compound against clotting factor VIIa was calculated.

T1 sequence (P08709 213-466 limits assumed): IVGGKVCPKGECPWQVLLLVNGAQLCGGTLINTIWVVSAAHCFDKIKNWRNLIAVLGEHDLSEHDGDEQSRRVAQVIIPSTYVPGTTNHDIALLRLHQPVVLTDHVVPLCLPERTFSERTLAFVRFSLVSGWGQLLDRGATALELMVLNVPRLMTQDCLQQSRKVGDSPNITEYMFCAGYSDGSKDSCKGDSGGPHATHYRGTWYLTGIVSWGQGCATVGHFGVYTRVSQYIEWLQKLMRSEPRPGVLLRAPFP
T1 sequence (P08709 61-212 limits assumed): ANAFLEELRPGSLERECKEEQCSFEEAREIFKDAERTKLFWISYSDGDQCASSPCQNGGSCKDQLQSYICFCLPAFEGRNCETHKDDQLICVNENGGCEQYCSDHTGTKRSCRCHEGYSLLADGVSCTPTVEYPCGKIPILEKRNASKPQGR
T1 sequence (P13726 33-295 partner): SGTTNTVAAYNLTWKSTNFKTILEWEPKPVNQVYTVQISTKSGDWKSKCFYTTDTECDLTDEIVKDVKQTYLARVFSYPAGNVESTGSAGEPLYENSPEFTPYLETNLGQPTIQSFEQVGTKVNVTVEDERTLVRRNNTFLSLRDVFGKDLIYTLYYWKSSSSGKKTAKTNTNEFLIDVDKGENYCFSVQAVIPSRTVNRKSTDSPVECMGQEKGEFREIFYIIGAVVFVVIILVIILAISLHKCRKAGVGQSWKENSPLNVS

pIC50 [1] | SMILES | h PT × 1.1: compound concentration which produced 10% prolongation compared to the control clotting time (healthy human plasma) [µM]
7.30 | CCOc1cc(C(Nc2ccc(C(=N)N)cc2)C(=O)NNC(=O)c2ccncc2F)ccc1OC(C)CN(C)C.O=C(O)C(F)(F)F (centres unmarked) [Example X-254, 4-(1-(4-(2-Dimethylamino-1-methylethoxy)-3-ethoxyphenyl)-2-(N′-(3-fluoropyridine-4-carbonyl)hydrazino)-2-oxoethylamino)benzamidine trifluoroacetate] | 0.59
6.78 | CCOc1cc(C(Nc2ccc(C(=N)N)cc2)C(=O)NNc2ccccc2C(=O)O)ccc1OCC(=O)N(C)C.O=C(O)C(F)(F)F (centres unmarked) [Example X-246, 2-[N′-[2-(4-Carbamimidoylphenylamino)-2-(4-dimethylcarbamoylmethoxy-3-ethoxyphenyl)acetyl]hydrazino]benzoic acid trifluoroacetate] | 0.90
6.70 | CCOc1cc(C(Nc2ccc(C(=N)N)cc2)C(=O)NNc2ccccc2OC)ccc1OCCN(C)C.O=C(O)C(F)(F)F (centres unmarked) [Example 56, 4-(((4-(2-Dimethylaminoethoxy)-3-ethoxyphenyl)-(N′-(2-methoxyphenyl)hydrazinocarbonyl)methyl)amino)benzamidine trifluoroacetate] | 0.41
7.20 | CCOc1cc(C(Nc2ccc(C(=N)N)cc2)C(=O)NNC(=O)c2ccncc2Br)ccc1OC(C)C.O=C(O)C(F)(F)F (centres unmarked) [Example 34, 4-(2-(N′-(3-Bromopyridine-4-carbonyl)hydrazino)-1-(3-ethoxy-4-isopropoxyphenyl)-2-oxoethylamino)benzamidine trifluoroacetate] | 1.40
6.79 | CCOc1cc(C(Nc2ccc(C(=N)N)cc2)C(=O)NNC(=O)c2ccncc2F)ccc1OCCN(C)C.O=C(O)C(F)(F)F (centres unmarked) [Example 53, 4-(1-(4-(2-Dimethylaminoethoxy)-3-ethoxyphenyl)-2-oxo-2-(N′-(3-fluoropyridine-4-carbonyl)hydrazino)ethylamino)benzamidine trifluoroacetate] | 0.65
6.47 | CCOc1cc(C(Nc2ccc(C(=N)N)cc2)C(=O)NNC(=O)c2ccccc2Cl)ccc1OCC(C)(C)N (centres unmarked) [Example X-247, 4-[1-[4-(2-Amino-2-methylpropoxy)-3-ethoxyphenyl]-2-[N′-(2-chlorobenzoyl)-hydrazino]-2-oxoethylamino]benzamidine trifluoroacetate] | 
6.77 | CCOc1cc(C(Nc2ccc(C(=N)N)cc2)C(=O)NNC(=O)c2cnccc2C)ccc1OCCOC.O=C(O)C(F)(F)F (centres unmarked) [Example 76, 4-(1-(3-Ethoxy-4-(2-methoxyethoxy)phenyl)-2-(N′-(4-methylpyridine-3-carbonyl)hydrazino)-2-oxoethylamino)benzamidine trifluoroacetate] | 0.63
7.02 | CCOc1cc(C(Nc2ccc(C(=N)N)cc2)C(=O)NNc2ccccn2)ccc1OC(C)C.O=C(O)C(F)(F)F (centres unmarked) [Example 2, 4-(((3-Ethoxy-4-isopropoxyphenyl)-(N′-pyridin-2-ylhydrazinocarbonyl)methyl)amino)benzamidine trifluoroacetate] | 1.00
6.59 | COc1cc(F)c(C(Nc2ccc(C(=N)N)cc2)C(=O)NNC(=O)c2ccccc2Cl)cc1OC.O=C(O)C(F)(F)F (centres unmarked) [Example 23, 4-(2-(N′-(2-Chlorobenzoyl)hydrazino)-1-(2-fluoro-4,5-dimethoxyphenyl)-2-oxoethylamino)benzamidine trifluoroacetate] | 1.20
6.50 | CCOc1cc(C(Nc2ccc(C(=N)N)cc2)C(=O)NNS(=O)(=O)c2ccc(NC(C)=O)cc2)ccc1OC(C)C.O=C(O)C(F)(F)F (centres unmarked) [Example 9, N-(4-(2-(2-(4-Carbamimidoylphenylamino)-2-(3-ethoxy-4-isopropoxyphenyl)acetyl)hydrazinosulfonyl)phenyl)acetamide trifluoroacetate] | 1.30
6.74 | CCOc1cc(C(Nc2ccc(C(=N)N)cc2)C(=O)NNC(=O)c2ccncc2Cl)ccc1OCC(=O)N(C)C.O=C(O)C(F)(F)F (centres unmarked) [Example 61, 2-(4-(1-(4-Carbamimidoylphenylamino)-2-(N′-(3-chloropyridine-4-carbonyl)hydrazino)-2-oxoethyl)-2-ethoxyphenoxy)-N,N-dimethylacetamide trifluoroacetate] | 0.41
6.69 | CCOc1cc(C(Nc2ccc(C(=N)N)cc2)C(=O)NNC(=O)c2ccncc2F)ccc1OCC(=O)N(C)C.O=C(O)C(F)(F)F (centres unmarked) [Example 60, 2-(4-(1-(4-Carbamimidoylphenylamino)-2-(N′-(3-fluoropyridine-4-carbonyl)-hydrazino)-2-oxoethyl)-2-ethoxyphenoxy)-N,N-dimethyl-acetamide trifluoroacetate] | 0.30
7.08 | CCOc1cc(C(Nc2ccc(C(=N)N)cc2)C(=O)NNC(=O)c2cnccc2Cl)ccc1OC(C)C.O=C(O)C(F)(F)F (centres unmarked) [Example 25, 4-(2-(N′-(4-Chloropyridine-3-carbonyl)hydrazino)-1-(3-ethoxy-4-isopropoxyphenyl)-2-oxoethylamino)benzamidine trifluoroacetate] | 1.20
7.01 | CCOc1cc(C(Nc2ccc(C(=N)N)cc2)C(=O)NNC(=O)c2ccccc2Cl)ccc1OC(C)CN(C)C.O=C(O)C(F)(F)F (centres unmarked) [Example X-252, 4-(2-(N′-(2-Chlorobenzoyl)hydrazino)-1-(4-(2-dimethylamino-1-methylethoxy)-3-ethoxyphenyl)-2-oxoethylamino)benzamidine trifluoroacetate] | 0.76
7.31 | CCOc1cc(C(Nc2ccc(C(=N)N)cc2)C(=O)NNC(=O)c2ccncc2Cl)ccc1OCCOC.O=C(O)C(F)(F)F (centres unmarked) [Example 78, 4-(2-(N′-(3-Chloropyridine-4-carbonyl)hydrazino)-1-(3-ethoxy-4-(2-methoxyethoxy)phenyl)-2-oxoethylamino)benzamidine trifluoroacetate] | 0.42
6.76 | CCOc1cc(C(Nc2ccc(C(=N)N)cc2)C(=O)NNC(=O)c2ccncc2F)ccc1OCC(C)(C)N.O=C(O)C(F)(F)F (centres unmarked) [Example X-248, 4-[1-[4-(2-Amino-2-methylpropoxy)-3-ethoxyphenyl]-2-[N′-(3-fluoropyridine-4-carbonyl)-hydrazino]-2-oxoethylamino]benzamidine trifluoroacetate] | 0.83
7.11 | CCCOc1cc(OC)cc(C(Nc2ccc(C(=N)N)cc2)C(=O)NNC(=O)c2ccncc2)c1F.O=C(O)C(F)(F)F (centres unmarked) [Example 81, 4-{1-(2-Fluoro-5-methoxy-3-propoxyphenyl)-2-oxo-2-[N′-(pyridine-4-carbonyl)hydrazino]ethylamino}benzamidine trifluoroacetate] | 1.20
 | CCOc1cc(C(Nc2ccc(C(=N)N)cc2)C(=O)NNS(=O)(=O)c2ccccc2S(C)(=O)=O)ccc1OC(C)C.O=C(O)C(F)(F)F (centres unmarked) [Example 10] | 1.20
6.63 | CCOc1cc(C(Nc2ccc(C(=N)N)cc2)C(=O)NNS(=O)(=O)c2ccccc2S(C)(=O)=O)ccc1OC(C)C.O=C(O)C(F)(F)F (centres unmarked) [Example 10, 4-(1-(3-Ethoxy-4-isopropoxyphenyl)-2-(2-(2-methanesulfonyl)phenylsulfonyl)hydrazino)-2-oxoethylamino)benzamidine trifluoroacetate] | 
